biological target: T1, human LPA1 (Homo sapiens, UniProt Q92633); experiment: LPA1 functional antagonist assay (LPA-induced calcium flux); assay type: cell-based; settings: read-out: hLPA1 IC50
T1 construct: expressed in transfected cells; host or cells: Chinese hamster ovary (CHO) cells
In short: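 CHO cells overexpressing human LPA1, loaded with calcium dye 30 min at 37° C, were preincubated 20 min at room temperature with compound (0.08 nM–5 μM, 0.5% DMSO) in HBSS/20 mM HEPES/0.1% fatty acid-free BSA.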

T1 sequence (Q92633 whole entry): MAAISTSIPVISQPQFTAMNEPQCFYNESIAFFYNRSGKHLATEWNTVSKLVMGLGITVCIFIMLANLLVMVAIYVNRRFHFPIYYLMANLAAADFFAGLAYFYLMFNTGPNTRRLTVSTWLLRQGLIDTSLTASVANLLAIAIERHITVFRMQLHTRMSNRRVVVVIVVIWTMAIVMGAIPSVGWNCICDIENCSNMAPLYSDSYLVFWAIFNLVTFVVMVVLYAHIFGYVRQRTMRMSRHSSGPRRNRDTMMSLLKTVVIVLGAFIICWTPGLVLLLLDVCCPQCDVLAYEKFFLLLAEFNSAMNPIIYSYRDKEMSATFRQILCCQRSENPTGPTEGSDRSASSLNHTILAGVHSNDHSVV

| Structure (SMILES) | IC50 |
| --- | --- |
| Cc1cc(-c2nnn(C)c2COC(=O)N(C)CC2CCC2)ccc1O[C@H]1CCC[C@H](C(=O)O)C1 [Example 37, (1S,3S)-3-(4-(5-((((cyclobutylmethyl)(methyl)carbamoyl)oxy)methyl)-1-methyl-1H-1,2,3-triazol-4-yl)-2-methylphenoxy)cyclohexane-1-carboxylic acid] | 14 nM |
| Cc1cc(-c2nnn(C)c2COC(=O)N(C)Cc2ccccc2)ccc1O[C@H]1CCC[C@H](C(=O)O)C1 [Example 38, (1S,3S)-3-(4-(5-(((benzyl(methyl)carbamoyl)oxy)methyl)-1-methyl-1H-1,2,3-triazol-4-yl)-2-methylphenoxy)cyclohexane-1-carboxylic acid] | 32 nM |
| CCCCN(C)C(=O)OCc1c(-c2ccc(O[C@H]3CCC[C@H](C(=O)O)C3)c(C)c2)nnn1C [Example 40, (1S,3S)-3-(4-(5-(((butyl(methyl)carbamoyl)oxy)methyl)-1-methyl-1H-1,2,3-triazol-4-yl)-2-methylphenoxy)cyclohexane-1-carboxylic acid] | 28 nM |
| Cc1cc(-c2nnn(C)c2COC(=O)N(C)CCC(C)C)ncc1O[C@H]1CCC[C@H](C(=O)O)C1 [Example 42, (1S,3S)-3-((6-(5-(((isopentyl(methyl)carbamoyl)oxy)methyl)-1-methyl-1H-1,2,3-triazol-4-yl)-4-methylpyridin-3-yl)oxy)cyclohexane-1-carboxylic acid] | 3750 nM |
| CN(C(=O)OCc1c(-c2ccc(O[C@H]3CCC[C@H](C(=O)O)C3)c(F)c2)nnn1C)C1CCCC1 [Example 44, (1S,3S)-3-(4-(5-(((cyclopentyl(methyl)carbamoyl)oxy)methyl)-1-methyl-1H-1,2,3-triazol-4-yl)-2-fluorophenoxy)cyclohexane-1-carboxylic acid] | 6 nM |
| CCCCN(C)C(=O)OCc1c(-c2ccc(O[C@H]3CCC[C@H](C(=O)O)C3)c(F)c2)nnn1C [Example 46, (1S,3S)-3-(4-(5-(((butyl(methyl)carbamoyl)oxy)methyl)-1-methyl-1H-1,2,3-triazol-4-yl)-2-fluorophenoxy)cyclohexane-1-carboxylic acid] | 6 nM |
| C[C@@H](C1CC1)N(C)C(=O)OCc1c(-c2ccc(O[C@H]3CCC[C@H](C(=O)O)C3)cc2)nnn1C [Example 52, (1S,3S)-3-(4-(5-(((((S)-1-cyclopropylethyl)(methyl)carbamoyl)oxy)methyl)-1-methyl-1H-1,2,3-triazol-4-yl)phenoxy)cyclohexane-1-carboxylic acid] | 197 nM |
| CC(C)CN(C)C(=O)OCc1c(-c2ccc(O[C@H]3CCC[C@H](C(=O)O)C3)cc2)nnn1C [Example 53, (1S,3S)-3-(4-(5-(((isobutyl(methyl)carbamoyl)oxy)methyl)-1-methyl-1H-1,2,3-triazol-4-yl)phenoxy)cyclohexane-1-carboxylic acid] | 440 nM |
| CN(C(=O)OCc1c(-c2ccc(O[C@H]3CCC[C@H](C(=O)O)C3)cc2)nnn1C)C1CCC1 [Example 73, (1S,3S)-3-(4-(5-(((cyclobutyl(methyl)carbamoyl)oxy)methyl)-1-methyl-1H-1,2,3-triazol-4-yl)phenoxy)cyclohexane-1-carboxylic acid] | 62 nM |
| CN(C(=O)OCc1c(-c2ccc(O[C@H]3CCC[C@H](C(=O)O)C3)cc2)nnn1C)C(C1CC1)C1CC1 [Example 74, (1S,3S)-3-(4-(5-((((Dicyclopropylmethyl)(methyl)carbamoyl)oxy)methyl)-1-methyl-1H-1,2,3-triazol-4-yl)phenoxy)cyclohexanecarboxylic acid] | 100 nM |
| CCCC1(N(C)C(=O)OCc2c(-c3ccc(O[C@H]4CCC[C@H](C(=O)O)C4)cc3)nnn2C)CC1 [Example 75, (1S,3S)-3-(4-(1-methyl-5-(((methyl(1-propylcyclopropyl)carbamoyl)oxy)methyl)-1H-1,2,3-triazol-4-yl)phenoxy)cyclohexane-1-carboxylic acid] | 20 nM |

The remaining molecules from weak to strong by IC50, led by results:

| IC50 | Structure (SMILES) |
| --- | --- |
| 2780 nM | CN(C(=O)OCc1c(-c2ccc(O[C@@H]3CCC[C@@H](C(=O)NS(C)(=O)=O)C3)cc2)nnn1C)C1CCCC1 [Example 72, (1-Methyl-4-(4-(((1R,3R)-3-((methylsulfonyl)carbamoyl)cyclohexyl)oxy)phenyl)-1H-1,2,3-triazol-5-yl)methyl cyclopentyl(methyl)carbamate] |
| 61 nM | CCCC1(N(C)C(=O)OCc2c(-c3ccc(O[C@H]4CCC[C@H](C(=O)O)C4)cn3)nnn2C)CC1 [Example 81, (1S,3S)-3-((6-(1-methyl-5-(((methyl(1-propylcyclopropyl)carbamoyl)oxy)methyl)-1H-1,2,3-triazol-4-yl)pyridin-3-yl)oxy)cyclohexane-1-carboxylic acid] |
| 60 nM | CN(C(=O)OCc1c(-c2ccc(O[C@H]3CCC[C@H](C(=O)O)C3)cn2)nnn1C)C(C1CC1)C1CC1 [Example 80, (1S,3S)-3-((6-(5-((((Dicyclopropylmethyl)(methyl)carbamoyl)oxy)methyl)-1-methyl-1H-1,2,3-triazol-4-yl)pyridin-3-yl)oxy)cyclohexanecarboxylic acid] |
| 47 nM | CCC(CC)N(C)C(=O)OCc1c(-c2ccc(O[C@H]3CCC[C@H](C(=O)O)C3)cc2)nnn1C [Example 76, (1S,3S)-3-(4-(1-methyl-5-(((methyl(pentan-3-yl)carbamoyl)oxy)methyl)-1H-1,2,3-triazol-4-yl)phenoxy)cyclohexane-1-carboxylic acid] |
| 45 nM | CN(C(=O)OCc1c(-c2ccc(O[C@H]3CCC[C@H](C(=O)O)C3)cn2)nnn1C)C1(C)CC1 [Example 79, (1S,3S)-3-((6-(1-methyl-5-(((methyl(1-methylcyclopropyl)carbamoyl)oxy)methyl)-1H-1,2,3-triazol-4-yl)pyridin-3-yl)oxy)cyclohexane-1-carboxylic acid] |
| 27 nM | CCCC(C)(C)N(C)C(=O)OCc1c(-c2ccc(O[C@H]3CCC[C@H](C(=O)O)C3)cn2)nnn1C [Example 78, (1S,3S)-3-((6-(1-methyl-5-(((methyl(2-methylpentan-2-yl)carbamoyl)oxy)methyl)-1H-1,2,3-triazol-4-yl)pyridin-3-yl)oxy)cyclohexane-1-carboxylic acid] |
| 14 nM | Cc1cc(-c2nnn(C)c2COC(=O)N(C)C2CCCC2)ccc1O[C@H]1CCC[C@H](C(=O)O)C1 [Example 41, (1S,3S)-3-(4-(5-(((cyclopentyl(methyl)carbamoyl)oxy)methyl)-1-methyl-1H-1,2,3-triazol-4-yl)-2-methylphenoxy)cyclohexane-1-carboxylic acid] |
| 10 nM | C[C@H](C1CC1)N(C)C(=O)OCc1c(-c2ccc(O[C@H]3CCC[C@H](C(=O)O)C3)c(F)c2)nnn1C [Example 70, (1S,3S)-3-(4-(5-(((((R)-1-cyclopropylethyl)(methyl)carbamoyl)oxy)methyl)-1-methyl-1H-1,2,3-triazol-4-yl)-2-fluorophenoxy)cyclohexane-1-carboxylic acid] |
| 7 nM | CCCCN(C)C(=O)OCc1c(-c2ccc(O[C@H]3CCC[C@H](C(=O)O)C3)cn2)nnn1C [Example 43, (1S,3S)-3-((6-(5-(((butyl(methyl)carbamoyl)oxy)methyl)-1-methyl-1H-1,2,3-triazol-4-yl)pyridin-3-yl)oxy)cyclohexane-1-carboxylic acid] |
| 3 nM | CC(C)CCN(C)C(=O)OCc1c(-c2ccc(O[C@H]3CCC[C@H](C(=O)O)C3)c(F)c2)nnn1C [Example 47, (1S,3S)-3-(2-fluoro-4-(5-(((isopentyl(methyl)carbamoyl)oxy)methyl)-1-methyl-1H-1,2,3-triazol-4-yl)phenoxy)cyclohexane-1-carboxylic acid] |

Source: patent publication US10576062B2, “Carbamoyloxymethyl triazole cyclohexyl acids as LPA antagonists” (Bristol-Myers Squibb Company, priority 2016, dated 2020)
